The term IC50 denotes the midpoint of a concentration-inhibition curve.

Consider 36 compounds from patent EP1192149B1, “1,4-DITHIIN AND 1,4-DITHIEPIN- 1,1,4,4, TETROXIDE DERIVATIVES USEFUL AS ANTAGONISTS OF THE HUMAN GALANIN RECEPTOR” (Ortho-McNeil Pharmaceutical, Inc., priority 1999, dated 2000).

For assay [1], the target named is T1, hGALR-1 (Homo sapiens, UniProt P47211).
T1 construct: hGALR-1 that is contained in membranes from human Bowes melanoma cells; endogenous in cells; host or cells: human Bowes melanoma cells (membranes)
T1 sequence (P47211 1-349): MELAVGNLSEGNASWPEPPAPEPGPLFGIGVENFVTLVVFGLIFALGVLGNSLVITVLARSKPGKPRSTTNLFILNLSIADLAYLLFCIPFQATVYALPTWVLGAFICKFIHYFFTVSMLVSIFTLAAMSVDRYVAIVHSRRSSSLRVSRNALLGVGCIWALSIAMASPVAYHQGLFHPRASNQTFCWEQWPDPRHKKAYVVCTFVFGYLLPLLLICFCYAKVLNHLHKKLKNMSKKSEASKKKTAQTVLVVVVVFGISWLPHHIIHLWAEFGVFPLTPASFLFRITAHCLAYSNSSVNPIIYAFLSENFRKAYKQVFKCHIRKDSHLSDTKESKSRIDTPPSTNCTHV
The assay is described as follows: Human Galanin-1 Receptor Binding Assay (SPA, 125I human galanin displacement). The settings on record: membranes from human Bowes melanoma cells. The procedure:
This assay determines the concentration (IC50) of a test compound which prevents 50% of galanin from binding to the hGALR-1 that is contained in membranes from human Bowes melanoma cells bound to wheat germ agglutinin conjugated Scintillation Proximity Assay (SPA) beads. The IC50 value is obtained by measuring the effect of half log increment dilutions of the test compound in duplicate using a 96-well plate (eight-rows, 12-columns).
The SPA beads (500 mg) were dissolved in 12.5 mL of assay buffer composed of 20mM DMSO-HEPES (pH 7.4), 0.1% bovine serum albumin, 2mM MgCl2, 2mM CaCl2, and protease inhibitors. Enough of this suspension for five plates (25 µL x 5 x 96 wells = 12000 µL) was dispensed into a 50 mL sterile Falcon tube. The amount of membranes required for five plates was then added (50µg x 5 x 96 wells), followed by 32.5 mL of 30% DMSO-HEPES buffer. The mixture was placed on a rotator and agitated for 0.5 hours and the non-specific binding sites on the beads were blocked by the addition of 5% [final] fetal bovine serum. Each well of the 96-well plate received 100 µL of this mixture.
To the control column (column 12) rows A and B was added 3.75 µL of a 300 µM solution of galantide in 30% DMSO-HEPES buffer, to rows C and D was added 3.75 µL of 30% DMSO-HEPES buffer and to rows E and F was added 3.75 µL of a 300 µM solution of galanin in 30% DMSO-HEPES buffer. In columns 1 through 11 were added solutions of the test compound in 30% DMSO-HEPES buffer starting at 30 µM and decreasing in concentration in half-log dilutions. A solution of radioactive ^125I human galanin (46.25 µL), prepared from 25 micro Curies of ^125I human galanin (2000 ci/mmol) and 500 µL of assay buffer, was added to each well. The plate was sealed with adhesive paper and incubated for 16 hr at room temperature before the quench-corrected bound radioactivity was measured in a Topcount® apparatus. For each dilution, the % inhibition of galanin binding was calculated as follows: Total binding (T) = Mean counts/minute (cpm) in row C and D in column 12 [formula] Non-specific binding (NSB) = Mean cpm in row E and F in column 12 [formula] Total specific binding (TS) = T-NSB [formula] cpm in each well = C [formula] net cpm in each well (N) = C-NSB [formula] % inhibition = 100%-N × 100%/TS [formula]
The IC50 values for each compound were calculated from the non-linear regression curve of the data using Prism® graphics software.

Assay [2] concerns the target T2, Rat Galanin-1 Receptor (Rattus norvegicus, UniProt Q62805).
T2 construct: Rat brain cerebrocortical tissues were chopped into slices; from tissue; host or cells: rat brain cerebrocortical slices
T2 sequence (Q62805 1-346): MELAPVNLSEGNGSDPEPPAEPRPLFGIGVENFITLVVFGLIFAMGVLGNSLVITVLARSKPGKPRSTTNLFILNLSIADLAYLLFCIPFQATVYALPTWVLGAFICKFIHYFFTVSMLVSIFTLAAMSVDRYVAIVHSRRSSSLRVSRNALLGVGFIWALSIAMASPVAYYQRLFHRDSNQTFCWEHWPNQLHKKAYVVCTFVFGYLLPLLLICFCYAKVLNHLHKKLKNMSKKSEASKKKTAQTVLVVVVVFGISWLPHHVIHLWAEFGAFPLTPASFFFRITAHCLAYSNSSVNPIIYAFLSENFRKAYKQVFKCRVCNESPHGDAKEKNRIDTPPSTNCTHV
The assay is described as follows: Galanin-1 receptor mediated inhibition of acetylcholine release from rat brain cortical slices (superfusion, K+-evoked [3H]acetylcholine efflux). To be noted: for Acetycholine Secretion Stimulated (change vs Control) / Acetycholine Secretion Stimulated: K+-evoked; for Acetycholine Secretion Stimulated / Acetycholine Secretion Basal: mean fractional tritium release. The protocol:
Rat brain cerebrocortical tissues were chopped into slices of 300 x 300 x […] using a Mcllwain tissue chopper. The slices were washed and incubated at 37°C for 30 min in Krebs-Ringer solution: NaCl 118 mM, KCI 4.8 mM, CaCl2 1.3 mM, KH2PO4 1.2 mM, MgSO4 1.2 mM, NaHCO3, 25 mM, glucose […], ascorbic acid […] (previously aerated for 10 min with 95% O2/5% CO2 to obtain a pH of 7.4) and 0.1 µM [Methyl-^3H]choline chloride (85 Ci/mmol, Amersham Life Sciences, Arlington Heights, IL). After incubation, the slices were washed three times with ice-cold physiological solution and resuspended in 6 ml of cold solution. Equal aliquots of the tissue suspension were placed in each of 6 parallel superfusion chambers (Hugo Sachs Elektronik, March-Hugstetten, Germany). A circular piece of nylon mesh (pore size 250 um) was placed just below each chamber outlet in order to prevent the loss of tissue. The chambers were perfused against gravity with oxygenated Krebs-Ringer containing 1 mM physostigmine hemisulfate at a flow rate of 1 ml/min. At the concentration used, physostigmine had no effect on the release of total radioactivity from tissue slices. The onset of superfusion was defined as time zero (t0). Starting at 30 min after t0, 10 min fractions of the effluent were collected.
Release of [^3H]acetylcholine was induced by superfusing tissues for 30 sec with 65mM K^+-Krebs-Ringer solution (made by isomolar replacement of NaCl with KCI). Four potassium pulses were given respectively at 40 min (S1), 70 min (S2), 100 min (S3) and 130 min (S4) after to. No significant deterioration in fractional release was observed during the 4 consecutive stimuli. […] To permit construction of concentration-effect curves, concentrations of agents were increased 10 fold between each stimulus.
Following perfusion, the tissue was homogenized in 1 ml ethanol and aliquots of superfusates (0.4ml) and tissue homogenates (0.04ml) were added to 5 ml of Scintsafe PlusTM 50% (Fisher Scientific, Pittsburgh, PA) and radioactivity counted by liquid scintillation spectrometry. The total ^3H content in this procedure consisted mainly of [^3H]acetylcholine.
Tritium (^3H) efflux into the superfusate was calculated as the fraction of tritium content in the slices or synaptosomes at the onset of the respective collection period. For calculation of the stimulated tritium overflow, the estimated basal efflux (the average of the 10 min fractions immediately before and after each stimulation) was subtracted from the total tritium efflux during the 10 min fraction which began with the 30 sec K^+ pulse. This difference was then used to calculate the percent of K^+-evoked release of acetylcholine.
In order to quantify the in vitro effect of a drug on stimulated tritium outflow, the ratio of the fraction released by a given pulse, Sn, to that evoked by S1, was determined. Data presented below are expressed as the mean fractional tritium release ± S.E.M. Statistical differences between treatments were tested by the two-tailed Student's t test or the two factor ANOVA as appropriate. Individual differences in the dose-response curve was evaluated by the Newman-Keul multiple comparison.

Where [3] appears, read: Table II, formula (II) compounds, read-out: hGAL IC50.
[4] abbreviates: Table I, formula (I) compounds, read-out: HGAL IC50.

Molecules are shown by their SMILES. Read-outs that look alike come from different tables or passages of the source.

Take `O=C(Oc1ccccc1)c1cccc(C2=CS(=O)(=O)CCCS2(=O)=O)c1` [Cmpd 33]: in assay [1] (setting [3]), the IC50 came to 440 nM. Still for that read-out and setting: to `O=S1(=O)C=C(c2cccc(I)c2)S(=O)(=O)CCC1` [Cmpd 27] belongs 850 nM; to `O=S1(=O)C=C(c2ccccc2C(F)(F)F)S(=O)(=O)CCC1` [Cmpd 31], 580 nM; to `O=C(NCCc1ccccc1)c1ccc(C2=CS(=O)(=O)CCCS2(=O)=O)cc1` [Cmpd 38], 1060 nM. The same measure, in the same setting: to `O=S1(=O)C=C(c2cccc3ccccc23)S(=O)(=O)CCC1` [Cmpd 37] belongs 371 nM; to `O=S1(=O)C=C(c2ccsc2)S(=O)(=O)CCC1` [Cmpd 41], 1300 nM. On to `O=S1(=O)C=C(c2ccccc2)S(=O)(=O)CC1` [Cmpd 1], for which the IC50 in assay [1] (setting [4]) amounted to 2700 nM. With `O=S1(=O)C=C(c2cccs2)S(=O)(=O)CCC1` [Cmpd 40], the IC50 in assay [1] (setting [3]) was 1300 nM. `CCCCOc1ccc(C(=O)NC(Cc2ccccc2)C2=CS(=O)(=O)CCS2(=O)=O)cc1` (centres unmarked) [Cmpd 4]: the concentration for half-maximal inhibition (IC50) in assay [1] (setting [4]) was determined as 1000 nM. For the compound `O=S1(=O)C=C(c2cccc(Br)c2)S(=O)(=O)CCC1` [Cmpd 9], the IC50 in assay [1] (setting [3]) turned out to be 890 nM. For `O=S1(=O)C=C(c2ccc(I)cc2)S(=O)(=O)CCC1` [Cmpd 17], in assay [1] (setting [3]), the IC50 came out at 710 nM. In assay [2] (1 µM+GAL), the “Acetycholine Secretion Basal (change vs Control)” value is reported as -39.2%, the “Acetycholine Secretion Stimulated (change vs Control)” value is on record as -35.2%, the “Acetycholine Secretion Stimulated” value is 5.37 and the “Acetycholine Secretion Basal” value came out at 2.19. Moreover, in assay [2] (10 µM+GAL), the “Acetycholine Secretion Basal (change vs Control)” value is on record as -37%, the “Acetycholine Secretion Stimulated (change vs Control)” value is reported as -22.3%, the “Acetycholine Secretion Stimulated” value was 6.44 and the “Acetycholine Secretion Basal” value came out at 2.27. In the case of `O=S1(=O)C=C(c2cccc(Cl)c2)S(=O)(=O)CCC1` [Cmpd 8], the IC50 in assay [1] (setting [3]) worked out at 1000 nM. In the case of `COc1ccccc1C1=CS(=O)(=O)CCCS1(=O)=O` [Cmpd 32], the IC50 in assay [1] (setting [3]) turned out to be 1000 nM. Regarding `O=S1(=O)C=C(c2ccccc2Br)S(=O)(=O)CCC1` [Cmpd 30], the 50% inhibitory concentration (IC50) in assay [1] (setting [3]) amounted to 570 nM. As for `O=S1(=O)C=C(c2cccc(F)c2)S(=O)(=O)CCC1` [Cmpd 16], in assay [2] (1 µM+GAL), the “Acetycholine Secretion Basal (change vs Control)” value is listed as -38.9%, the “Acetycholine Secretion Stimulated (change vs Control)” value is -23.9% and the “Acetycholine Secretion Basal” value is 2.20. In assay [2] (10 µM+GAL), the “Acetycholine Secretion Basal (change vs Control)” value is -37%. With `O=S1(=O)C=C(c2ccc(C3CCCCC3)cc2)S(=O)(=O)CCC1` [Cmpd 25], in assay [1] (setting [3]), the IC50 stood at 1100 nM. The same measure, in the same setting: to `Cc1cccc(C2=CS(=O)(=O)CCCS2(=O)=O)c1` [Cmpd 6] belongs 1300 nM. Turning to `Cc1ccccc1C1=CS(=O)(=O)CCCS1(=O)=O` [Cmpd 18], the IC50 in assay [1] (setting [3]) came to 1600 nM. Still for that read-out and setting: to `CCOc1ccc(C2=CS(=O)(=O)CCCS2(=O)=O)cc1` [Cmpd 28] belongs 590 nM. Take `O=S1(=O)C=C(c2ccc(Br)cc2)S(=O)(=O)CCC1` [Cmpd 13]: in assay [1] (setting [3]), the IC50 stood at 260 nM.

`CCCNC(=O)c1ccc(C2=CS(=O)(=O)CCCS2(=O)=O)cc1` [Cmpd 36]: in assay [1] (setting [3]), the IC50 was determined as 1040 nM.

For `O=S1(=O)C=C(c2ccc(C(F)(F)F)cc2)S(=O)(=O)CCC1` [Cmpd 22], in assay [1] (setting [3]), the IC50 is 2100 nM. The same measure, in the same setting: to `O=S1(=O)C=C(c2cccc(OC(F)(F)F)c2)S(=O)(=O)CCC1` [Cmpd 20] belongs 2700 nM; to `O=S1(=O)C=C(c2ccccc2F)S(=O)(=O)CCC1` [Cmpd 29], 430 nM. Consider `NC(Cc1ccccc1)C1=CS(=O)(=O)CCS1(=O)=O` (centres unmarked) [Cmpd 3], for which the IC50 in assay [1] (setting [4]) stood at 8000 nM.

With `O=S1(=O)C=C(c2ccc(OC(F)(F)F)cc2)S(=O)(=O)CCC1` [Cmpd 23], the IC50 in assay [1] (setting [3]) turned out to be 490 nM. For `CCc1ccc(C2=CS(=O)(=O)CCCS2(=O)=O)cc1` [Cmpd 26], the IC50 in assay [1] (setting [3]) was found to be 430 nM. Same read-out and setting: the same measure for `O=S1(=O)C=C(c2ccc(Oc3ccccc3)cc2)S(=O)(=O)CCC1` [Cmpd 19]: 410 nM; for `O=S1(=O)C=C(c2ccc(S(=O)(=O)c3ccccc3)cc2)S(=O)(=O)CCC1` [Cmpd 35]: 1580 nM. The same measure, in the same setting: the same measure for `CCOC(=O)c1ccc(C2=CS(=O)(=O)CCCS2(=O)=O)cc1` [Cmpd 34]: 1000 nM; for `O=S1(=O)C=C(c2ccccc2Cl)S(=O)(=O)CCC1` [Cmpd 12]: 640 nM; for `O=S1(=O)C=C(c2cccc(C(F)(F)F)c2)S(=O)(=O)CCC1` [Cmpd 11]: 600 nM. In the case of `O=S1(=O)C=C(c2ccc(F)cc2)S(=O)(=O)CCC1` [Cmpd 14], the IC50 in assay [1] (setting [3]) is 410 nM. Same read-out and setting: to `COc1cccc(C2=CS(=O)(=O)CCCS2(=O)=O)c1` [Cmpd 7] belongs 910 nM.

Consider `O=S1(=O)C=C(c2ccccc2)S(=O)(=O)CCC1` [Cmpd 5], for which, in assay [1] (setting [3]), the IC50 was 2700 nM. On to `O=S1(=O)C=C(c2ccc(-c3ccccc3)cc2)S(=O)(=O)CCC1` [Cmpd 24], for which the IC50 in assay [1] (setting [3]) is 600 nM.
